Test results reported in US7612055B2, “Macrocyclic lactams and pharmaceutical use thereof” (Novartis AG, priority 2003, dated 2009).

CCCCNC(=O)C(C)CC(O)C1C[C@H](C)CCCCCCNc2cc(cc(OC)n2)C(=O)N1 (stereo partly drawn) [Example 11, N-Butyl-4-hydroxy-4-((9R)-16-methoxy-9-methyl-13-oxo-2,12,17-triaza-bicyclo[12.3.1]octadeca-1(17),14(18),15-trien-11-yl)-2-methyl-butyramide]
melting point: 178 to 182 °C
